Patent US20190224278A1, “PRODUCING METHOD OF ANTIMICROBIAL PEPTIDE WITH ENHANCED ADHESION AND USES THEREOF” (Intelligent Synthetic Biology Center, priority 2018, published 2019)
In brackets after ≈: the same amount, converted by molar mass. Non-standard residues stand in square brackets, D forms with d. Residues, ends and D or L forms follow the SMILES beside them. No end group written: not given here. Dopa = N[C@@H](Cc1ccc(O)c(O)c1)C(=O)O

Tests used:
[1] = tested on: E. coli; format: cell-based, Escherichia coli; details: 18 h
Protocol: In order to confirm the antimicrobial activity of the adhesive antimicrobial peptides prepared in Experimental Example 1-1, the minimal inhibitory concentration (MIC) which inhibits the growth of E. coli was identified by using a method disclosed in Nature Protocols. 2008; 3(2):163-175. Briefly, a culture medium in which a single colony had been grown for 16 hours was subcultured and grown until OD600 reached 0.4 to 0.6, which corresponds to logarithmic growth. Thereafter, the number of cells was calculated according to the OD values, and the number of cells was set at 10^6 cell/mL. When a Mueller-Hinton Broth (MHB) was loaded to a polypropylene 96-well plate, 90 μL was added to the first row of the plate and 100 μL was added to the control wells, and 50 μL was added to the remaining wells. Thereafter, the peptide solution was prepared at a concentration of […], and 10 μL thereof was added to each well of the first row. The peptide solution was mixed with the medium using a multi-pipette, and then 50 μL was transferred to the second row (B). At this time, the peptide was diluted to half concentration, and the peptide was transferred up to the seventh row by the same method so that the peptide (64 μM to 1 μM) was dissolved in the medium. 10^6 cell/mL of Escherichia coli, which had been prepared previously, was added thereto, and then the plate was cultured for 18 hours. Thus, the final concentration range of the peptide used in the experiment became 32 μM to 0.5 μM. After culturing for 18 hours, the OD values were measured using a microplate reader (Tecan i-control 200 pro), and the MIC values were identified.

[2] = tested on: E. coli; experiment: Antimicrobial activity of the coated surface (modified ISO 22196 / colony counting assay); format: cell-based, Escherichia coli; details: coated on polystyrene at 25, 50 and 100 μM, E. coli cultured 24 hours
Protocol: In order to confirm the antimicrobial activity in the state where the antimicrobial peptides are coated, the experiment was carried out by an ISO 22196 method in which some steps were changed. Based on the results of Experimental Example 2-1 above, the experiment on the antimicrobial activity was carried out by only using the NKCs to which 3, 5, and 7 DOPA moieties were conjugated (i.e., NKC-L-O3, NKC-L-O5, NKC-L-O7, respectively). Each of NKC-L-O3, NKC-L-O5, and NKC-L-O7 was coated on a polystyrene surface at different concentrations of 25 μM, 50 μM, and 100 μM, and then E. coli in logarithmic phase (10^6 cell/mL) was cultured on the coated surface for 24 hours. After the culture, the culture medium was diluted to a certain concentration and smeared on a plate, and the CFU values were confirmed after 16 hours. The E. coli death level, calculated by comparing the above CFU values with CFU values of the uncoated surface, is represented using the following equation.
Antimicrobial Activity=(1−CFU of Surface of Sample/CFU of Control)×100
In order to measure the antimicrobial activity of NKC-L-O5 (100 μM) according to coating time, a colony counting assay was carried out. […] The plate was cultured at 37° C. for 16 hours, and then the colonies were counted.

Row | Compound | MIC [1] [µM] | antimicrobial activity in coated state, dependence [2]
1 | APKAMKLLKKLLKLQKKGI [NKC] | 1 | 
2 | CC[C@H](C)[C@H](NC(=O)CNC(=O)[C@H](CCCCN)NC(=O)[C@H](CCCCN)NC(=O)[C@H](CCC(N)=O)NC(=O)[C@H](CC(C)C)NC(=O)[C@H](CCCCN)NC(=O)[C@H](CC(C)C)NC(=O)[C@H](CC(C)C)NC(=O)[C@H](CCCCN)NC(=O)[C@H](CCCCN)NC(=O)[C@H](CC(C)C)NC(=O)[C@H](CC(C)C)NC(=O)[C@H](CCCCN)NC(=O)[C@H](CCSC)NC(=O)[C@H](C)NC(=O)[C@H](CCCCN)NC(=O)[C@@H]1CCCN1C(=O)[C@H](C)N)C(=O)NCC(=O)NCC(=O)NCC(=O)NCC(=O)N[C@@H](CO)C(=O)NCC(=O)NCC(=O)NCC(=O)NCC(=O)N[C@@H](CO)C(=O)N[C@@H](Cc1ccc(O)c(O)c1)C(=O)N[C@@H](Cc1ccc(O)c(O)c1)C(=O)N[C@@H](Cc1ccc(O)c(O)c1)C(=O)O [NKC-(G4S)2-DOPA3] (H-APKAMKLLKKLLKLQKKGIGGGGSGGGGS[Dopa][Dopa][Dopa]-OH; N-terminus and C-terminus assumed) | 8 (≈ 26.5 µg/mL) | antimicrobial activity dependent on the number of DOPA moieties and the concentration of the NKC
3 | CC[C@H](C)[C@H](NC(=O)CNC(=O)[C@H](CCCCN)NC(=O)[C@H](CCCCN)NC(=O)[C@H](CCC(N)=O)NC(=O)[C@H](CC(C)C)NC(=O)[C@H](CCCCN)NC(=O)[C@H](CC(C)C)NC(=O)[C@H](CC(C)C)NC(=O)[C@H](CCCCN)NC(=O)[C@H](CCCCN)NC(=O)[C@H](CC(C)C)NC(=O)[C@H](CC(C)C)NC(=O)[C@H](CCCCN)NC(=O)[C@H](CCSC)NC(=O)[C@H](C)NC(=O)[C@H](CCCCN)NC(=O)[C@@H]1CCCN1C(=O)[C@H](C)N)C(=O)NCC(=O)NCC(=O)NCC(=O)NCC(=O)N[C@@H](CO)C(=O)NCC(=O)NCC(=O)NCC(=O)NCC(=O)N[C@@H](CO)C(=O)N[C@@H](Cc1ccc(O)c(O)c1)C(=O)N[C@@H](Cc1ccc(O)c(O)c1)C(=O)N[C@@H](Cc1ccc(O)c(O)c1)C(=O)N[C@@H](Cc1ccc(O)c(O)c1)C(=O)N[C@@H](Cc1ccc(O)c(O)c1)C(=O)O [NKC-(G4S)2-DOPA5] (H-APKAMKLLKKLLKLQKKGIGGGGSGGGGS[Dopa][Dopa][Dopa][Dopa][Dopa]-OH) | 8 (≈ 29.4 µg/mL) | 
4 | CC[C@H](C)[C@H](NC(=O)CNC(=O)[C@H](CCCCN)NC(=O)[C@H](CCCCN)NC(=O)[C@H](CCC(N)=O)NC(=O)[C@H](CC(C)C)NC(=O)[C@H](CCCCN)NC(=O)[C@H](CC(C)C)NC(=O)[C@H](CC(C)C)NC(=O)[C@H](CCCCN)NC(=O)[C@H](CCCCN)NC(=O)[C@H](CC(C)C)NC(=O)[C@H](CC(C)C)NC(=O)[C@H](CCCCN)NC(=O)[C@H](CCSC)NC(=O)[C@H](C)NC(=O)[C@H](CCCCN)NC(=O)[C@@H]1CCCN1C(=O)[C@H](C)N)C(=O)NCC(=O)NCC(=O)NCC(=O)NCC(=O)N[C@@H](CO)C(=O)NCC(=O)NCC(=O)NCC(=O)NCC(=O)N[C@@H](CO)C(=O)N[C@@H](Cc1ccc(O)c(O)c1)C(=O)N[C@@H](Cc1ccc(O)c(O)c1)C(=O)N[C@@H](Cc1ccc(O)c(O)c1)C(=O)N[C@@H](Cc1ccc(O)c(O)c1)C(=O)N[C@@H](Cc1ccc(O)c(O)c1)C(=O)N[C@@H](Cc1ccc(O)c(O)c1)C(=O)N[C@@H](Cc1ccc(O)c(O)c1)C(=O)O [NKC-(G4S)2-DOPA7] (H-APKAMKLLKKLLKLQKKGIGGGGSGGGGS[Dopa][Dopa][Dopa][Dopa][Dopa][Dopa][Dopa]-OH; N-terminus and C-terminus assumed) | 16 (≈ 64.6 µg/mL) | 
5 | CC[C@H](C)[C@H](NC(=O)CNC(=O)[C@H](CCCCN)NC(=O)[C@H](CCCCN)NC(=O)[C@H](CCC(N)=O)NC(=O)[C@H](CC(C)C)NC(=O)[C@H](CCCCN)NC(=O)[C@H](CC(C)C)NC(=O)[C@H](CC(C)C)NC(=O)[C@H](CCCCN)NC(=O)[C@H](CCCCN)NC(=O)[C@H](CC(C)C)NC(=O)[C@H](CC(C)C)NC(=O)[C@H](CCCCN)NC(=O)[C@H](CCSC)NC(=O)[C@H](C)NC(=O)[C@H](CCCCN)NC(=O)[C@@H]1CCCN1C(=O)[C@H](C)N)C(=O)NCC(=O)NCC(=O)NCC(=O)NCC(=O)N[C@@H](CO)C(=O)NCC(=O)NCC(=O)NCC(=O)NCC(=O)N[C@@H](CO)C(=O)N[C@@H](Cc1ccc(O)c(O)c1)C(=O)O [NKC-(G4S)2-DOPA1] (HELM PEPTIDE1{A.P.K.A.M.K.L.L.K.K.L.L.K.L.Q.K.K.G.I.G.G.G.G.S.G.G.G.G.S.[O=C(O)[C@H](Cc1ccc(O)c(O)c1)N[*:1]]}$$$$V2.0; N-terminus and C-terminus assumed) | 8 (≈ 23.7 µg/mL) | 
